Laboratory results as given in patent US9850283B2, “Macrocyclic inhibitors of the PD-1/PD-L1 and CD80(B7-1)/PD-L1 protein/protein interactions” (BRISTOL-MYERS SQUIBB COMPANY, priority 2013, dated 2017).
Like-named read-outs stand apart in the source and are kept apart here. Starred links: 1 amine or outer side, 2 acyl side, 3 side chain; linkers in the order of their positions; H or OH if unused. Positions of bridges follow the written chain, without caps; N, C: chain ends. Non-standard residues stand in square brackets, D forms with d. Residues, ends and D or L forms follow the SMILES beside them. ξ: configuration not given here. X13 = COc1ccc2c(O[C@@H]3C[C@@H](C(=O)[*:2])N([*:1])C3)nccc2c1; X17 = O=C([C@@H]1C[C@@H](c2nn[nH]n2)CN1[*:1])[*:2]; Phe(3,4,5-F3) = N[C@@H](Cc1cc(F)c(F)c(F)c1)C(=O)O; Phe(3-CN) = N#Cc1cccc(C[C@H](N)C(=O)O)c1; Pro(4R-NH2) = N[C@H]1CN[C@H](C(=O)O)C1; Bta = N[C@@H](Cc1csc2ccccc12)C(=O)O; cisHyp = O=C(O)[C@@H]1C[C@H](O)CN1; Hyp = O=C(O)[C@@H]1C[C@@H](O)CN1; NMeF = CN[C@@H](Cc1ccccc1)C(=O)O; 3Pal = N[C@@H](Cc1cccnc1)C(=O)O; dNMeNle = CCCC[C@@H](NC)C(=O)O; NMeNle = CCCC[C@H](NC)C(=O)O; Pen = CC(C)(S)[C@H](N)C(=O)O; NMeA = CN[C@@H](C)C(=O)O; Orn = NCCC[C@H](N)C(=O)O; dDap = NC[C@@H](N)C(=O)O; Dab = NCC[C@H](N)C(=O)O; Dap = NC[C@H](N)C(=O)O; ξP = O=C(O)C1CCCN1; ξC = NC(CS)C(=O)O; Sar = CNCC(=O)O

Experiments:
Human PD-L1/PD-1 = biological target: T1, Human PD-L1/PD-1 (Homo sapiens, UniProt Q9NZQ7); assay: HTRF PD-1-Ig/PD-L1-His binding assay (human PD-L1); conditions: cluster symbol; read-out: HTRF IC50 cluster
T1 construct: made in house; host or cells: HEK293T
Procedure, shortened: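 Steps: truncated PD-1-Ig and PD-L1-His fusions are incubated in dPBS containing 0.1% (w/v) BSA and 0.05% (v/v) Tween-20. Detection antibodies are then added (Eu cryptate anti-Ig at 1 nM final, APC anti-His at 20 nM final), and time-resolved FRET is measured.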

[1] = biological target: T2, LK35.2-hPD-L1 cells / PE-labeled PD-1-Ig (Homo sapiens, UniProt Q9NZQ7); assay: LK35.2-hPD-L1 cell binding high-content screening assay; format: cell-based; conditions: cluster symbol, read-out: CBA IC50 cluster
T2 construct: expressed in transfected cells; host or cells: LK35.2 mouse B cell line
Procedure, shortened: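 Mouse LK35.2 B cells stably overexpressing human PD-L1 were cultured overnight in RPMI with 10% FCS, then given compound and PE-labeled human PD-1-Ig (1 nM final) for 1 h at 37 °C. After three dPBS washes, bound fluorescence was quantified by high-content imaging.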

[2] = cell binding assay, cell line not given
[3] = cell line of CBA not given (LK35.2-hPD-L1 or 293T-hPD-L1)

T2 sequence (Q9NZQ7 19-290): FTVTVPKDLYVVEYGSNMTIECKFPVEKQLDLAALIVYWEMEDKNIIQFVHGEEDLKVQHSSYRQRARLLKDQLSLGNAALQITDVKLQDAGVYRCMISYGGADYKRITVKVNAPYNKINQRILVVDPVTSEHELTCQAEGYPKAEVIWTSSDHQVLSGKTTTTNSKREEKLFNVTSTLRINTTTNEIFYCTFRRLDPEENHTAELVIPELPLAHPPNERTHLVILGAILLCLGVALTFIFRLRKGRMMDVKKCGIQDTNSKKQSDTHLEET
T1 sequence (Q9NZQ7 with tags, fused parts or gaps): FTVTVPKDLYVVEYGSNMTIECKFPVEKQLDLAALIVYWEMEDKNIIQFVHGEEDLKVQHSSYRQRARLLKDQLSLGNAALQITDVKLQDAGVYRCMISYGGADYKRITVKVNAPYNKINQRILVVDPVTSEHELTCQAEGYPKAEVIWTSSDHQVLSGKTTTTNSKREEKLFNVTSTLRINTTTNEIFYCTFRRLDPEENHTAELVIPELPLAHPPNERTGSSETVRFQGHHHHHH

IC50 (Human PD-L1/PD-1) | IC50 [1, 2] | IC50 [1, 3] | SMILES
0.385 to 6.74 nM | 0.158 to 4.71 nM |  | CCCC[C@H]1C(=O)N(C)[C@@H](CCCC)C(=O)N[C@@H](CCCNC(=N)N)C(=O)NC(C(=O)NCC(N)=O)CSCC(=O)N[C@@H](Cc2ccc(O)cc2)C(=O)N(C)[C@@H](C)C(=O)N[C@@H](CC(N)=O)C(=O)N2CCC[C@H]2C(=O)N[C@@H](Cc2cnc[nH]2)C(=O)N[C@@H](CC(N)=O)C(=O)N2CCC[C@H]2C(=O)N[C@@H](Cc2c[nH]c3ccccc23)C(=O)N[C@@H](CO)C(=O)N[C@@H](Cc2c[nH]c3ccccc23)C(=O)N1C (stereo partly shown) [Example 9063] ({CH2CO}-Y[NMeA]NPHNPWSW[NMeNle][NMeNle]R[ξC]G-NH2; thioether N-14)
0.385 to 6.74 nM | 0.158 to 4.71 nM |  | CCCC[C@H]1C(=O)N(C)[C@@H](CCCC)C(=O)N[C@@H](CCCNC(=N)N)C(=O)NC(C(=O)NCC(N)=O)CSCC(=O)N[C@@H](Cc2ccc(O)cc2)C(=O)N(C)[C@@H](C)C(=O)N[C@@H](CC(N)=O)C(=O)N2CCC[C@H]2C(=O)N[C@@H](CO)C(=O)N[C@@H](CC(C)C)C(=O)N2CCC[C@H]2C(=O)N[C@@H](Cc2c[nH]c3ccccc23)C(=O)N[C@@H](CO)C(=O)N[C@@H](Cc2c[nH]c3ccccc23)C(=O)N1C (stereo partly shown) [Example 9073] ({CH2CO}-Y[NMeA]NPSLPWSW[NMeNle][NMeNle]R[ξC]G-NH2; thioether N-14)
6.76 to 30.3 nM | > 74.3 nM |  | CCCC[C@H]1C(=O)N(C)[C@@H](CCCC)C(=O)N[C@@H](CCCNC(=N)N)C(=O)N[C@H](C(=O)NCC(N)=O)CSCC(=O)N[C@@H](Cc2cccc(C#N)c2)C(=O)N(C)[C@@H](C)C(=O)N[C@@H](CC(N)=O)C(=O)N2CCC[C@H]2C(=O)N[C@@H](Cc2cnc[nH]2)C(=O)N[C@@H](CC(C)C)C(=O)N2C[C@H](O)C[C@H]2C(=O)N[C@@H](Cc2c[nH]c3ccccc23)C(=O)N[C@@H](CO)C(=O)N[C@@H](Cc2c[nH]c3ccccc23)C(=O)N1C [Example 7058] ({CH2CO}-[Phe(3-CN)][NMeA]NPHL[Hyp]WSW[NMeNle][NMeNle]RCG-NH2; thioether N-14)
6.76 to 30.3 nM |  | 0.158 to 4.71 nM | CCCC[C@H]1C(=O)N(C)[C@@H](CCCC)C(=O)N[C@@H](CCCN)C(=O)N[C@H](C(=O)NCC(N)=O)CSCC(=O)N[C@@H](Cc2ccc(O)cc2)C(=O)N(C)[C@@H](C)C(=O)N[C@@H](CC(N)=O)C(=O)N2CCC[C@H]2C(=O)N[C@@H](Cc2cnc[nH]2)C(=O)N[C@@H](CC(C)C)C(=O)N2C[C@@H](O)C[C@H]2C(=O)N[C@@H](Cc2c[nH]c3ccccc23)C(=O)N[C@@H](CO)C(=O)N[C@@H](Cc2csc3ccccc23)C(=O)N1C [Example 1051] ({CH2CO}-Y[NMeA]NPHL[cisHyp]WS[Bta][NMeNle][NMeNle][Orn]CG-NH2; thioether N-14)
6.76 to 30.3 nM |  | 0.158 to 4.71 nM | CCCC[C@H]1C(=O)N(C)[C@@H](CCCC)C(=O)N[C@@H](CCCNC(=N)N)C(=O)N[C@H](C(=O)NCC(N)=O)CSCC(=O)N[C@@H](Cc2ccc(O)cc2)C(=O)N(C)[C@@H](C)C(=O)N[C@@H](CC(=O)O)C(=O)N2CCC[C@H]2C(=O)N[C@@H](Cc2cnc[nH]2)C(=O)N[C@@H](CC(C)C)C(=O)N2CCC[C@H]2C(=O)N[C@@H](Cc2c[nH]c3ccccc23)C(=O)N[C@@H](CO)C(=O)N[C@@H](Cc2c[nH]c3ccccc23)C(=O)N1C [Example 1122] ({CH2CO}-Y[NMeA]DPHLPWSW[NMeNle][NMeNle]RCG-NH2; thioether N-14)

Continued, compound first:

SMILES | IC50 (Human PD-L1/PD-1) | IC50 [1, 2] | IC50 [1, 3]
CCCC[C@H]1C(=O)N(C)[C@@H](CCCC)C(=O)N[C@@H](CCN)C(=O)N[C@H](C(=O)NCC(N)=O)CSCC(=O)N[C@@H](Cc2ccc(O)cc2)C(=O)N(C)[C@@H](C)C(=O)N[C@@H](CC(N)=O)C(=O)N2CCC[C@H]2C(=O)N[C@@H](Cc2cnc[nH]2)C(=O)N[C@@H](CCC(N)=O)C(=O)N2C[C@H](O)C[C@H]2C(=O)N[C@@H](Cc2c[nH]c3ccccc23)C(=O)N[C@@H](CO)C(=O)N[C@@H](Cc2c[nH]c3ccccc23)C(=O)N1C [Example 5041] ({CH2CO}-Y[NMeA]NPHQ[Hyp]WSW[NMeNle][NMeNle][Dab]CG-NH2; thioether N-14) | 6.76 to 30.3 nM | 0.158 to 4.71 nM | 
CCCC[C@H]1C(=O)N(C)[C@@H](CCCC)C(=O)N[C@@H](CCN)C(=O)N[C@H](C(=O)NCC(N)=O)CSCC(=O)N[C@@H](Cc2ccc(O)cc2)C(=O)N(C)[C@@H](C)C(=O)N[C@@H](CC(N)=O)C(=O)N2CCC[C@H]2C(=O)N[C@@H](Cc2c[nH]cn2)C(=O)N[C@@H](CCC(=O)O)C(=O)N2C[C@H](c3nn[nH]n3)C[C@H]2C(=O)N[C@@H](Cc2c[nH]c3ccccc23)C(=O)N[C@@H](CCN)C(=O)N[C@@H](Cc2c[nH]c3ccccc23)C(=O)N1C [Example 13004] ({CH2CO}-Y[NMeA]NPHE[X17]W[Dab]W[NMeNle][NMeNle][Dab]CG-NH2; thioether N-14) | 0.385 to 6.74 nM | 0.158 to 4.71 nM | 
CCCC[C@H]1C(=O)N(C)[C@@H](CCCC)C(=O)N[C@@H](CC(C)C)C(=O)N[C@H](C(=O)NCC(N)=O)CSCC(=O)N[C@@H](Cc2ccc(O)cc2)C(=O)N(C)[C@@H](C)C(=O)N[C@@H](CC(N)=O)C(=O)N2CCC[C@H]2C(=O)N[C@@H](CN)C(=O)N[C@@H](CC(C)C)C(=O)N2C[C@H](Oc3nccc4cc(OC)ccc34)C[C@H]2C(=O)N[C@@H](Cc2c[nH]c3ccccc23)C(=O)N[C@@H](CCN)C(=O)N[C@@H](Cc2c[nH]c3ccccc23)C(=O)N1C [Example 6048] ({CH2CO}-Y[NMeA]NP[Dap]L[X13]W[Dab]W[NMeNle][NMeNle]LCG-NH2; thioether N-14) | 6.76 to 30.3 nM | 4.78 to 72.9 nM | 
CCCC[C@H]1C(=O)N(C)[C@@H](CCCC)C(=O)N[C@@H](CCCNC(=N)N)C(=O)N[C@H](C(=O)NCC(N)=O)CSCC(=O)N[C@@H](Cc2cccnc2)C(=O)N(C)[C@@H](C)C(=O)N[C@@H](CC(N)=O)C(=O)N2CCC[C@H]2C(=O)N[C@@H](Cc2c[nH]cn2)C(=O)N[C@@H](CC(C)C)C(=O)N2C[C@H](O)C[C@H]2C(=O)N[C@@H](Cc2c[nH]c3ccccc23)C(=O)N[C@@H](CO)C(=O)N[C@@H](Cc2c[nH]c3ccccc23)C(=O)N1C [Example 7024] ({CH2CO}-[3Pal][NMeA]NPHL[Hyp]WSW[NMeNle][NMeNle]RCG-NH2; thioether N-14) | 6.76 to 30.3 nM | 4.78 to 72.9 nM | 
CCCC[C@H]1C(=O)N(C)[C@@H](CCCC)C(=O)N[C@@H](CCCNC(=N)N)C(=O)N[C@H](C(=O)NCC(N)=O)C(C)(C)SCC(=O)N[C@@H](Cc2ccccc2)C(=O)N(C)[C@@H](C)C(=O)N[C@@H](CC(N)=O)C(=O)N2CCC[C@H]2C(=O)N[C@@H](Cc2cnc[nH]2)C(=O)N[C@@H](CC(C)C)C(=O)N(C)CC(=O)N[C@@H](Cc2c[nH]c3ccccc23)C(=O)N[C@@H](CO)C(=O)N[C@@H](Cc2c[nH]c3ccccc23)C(=O)N1C [Example 1083] ({CH2CO}-F[NMeA]NPHL[Sar]WSW[NMeNle][NMeNle]R[Pen]G-NH2; thioether N-14) | 0.385 to 6.74 nM |  | 4.78 to 72.9 nM
CCCC[C@H]1C(=O)N(C)[C@@H](CCCC)C(=O)N[C@@H](CCCNC(=N)N)C(=O)N[C@H](C(=O)NCC(N)=O)CSCC(=O)N[C@@H](Cc2ccc(O)cc2)C(=O)N(C)[C@@H](C)C(=O)N[C@@H](CCN)C(=O)N2CCC[C@H]2C(=O)N[C@@H](CN)C(=O)N[C@@H](CCC(=O)O)C(=O)N2C[C@H](O)C[C@H]2C(=O)N[C@@H](Cc2c[nH]c3ccccc23)C(=O)N[C@@H](CO)C(=O)N[C@@H](Cc2c[nH]c3ccccc23)C(=O)N1C [Example 5131] ({CH2CO}-Y[NMeA][Dab]P[Dap]E[Hyp]WSW[NMeNle][NMeNle]RCG-NH2; thioether N-14) | 0.385 to 6.74 nM | 0.158 to 4.71 nM | 
CCCC[C@H]1C(=O)N2CCC[C@@H]2C(=O)N2C[C@H](N)C[C@H]2C(=O)N[C@@H](C(C)C)C(=O)N(C)[C@@H](Cc2ccccc2)C(=O)N[C@@H](Cc2ccc(O)cc2)C(=O)N2CCC[C@@H]2C(=O)N[C@@H](Cc2c[nH]c3ccccc23)C(=O)N[C@@H](Cc2ccc(O)cc2)C(=O)N[C@@H](CC(C)C)C(=O)N[C@H](C(=O)NCC(N)=O)CSCC(=O)N[C@@H](Cc2cc(F)c(F)c(F)c2)C(=O)N(C)[C@@H](Cc2ccccc2)C(=O)N1C [Example 3193] ({CH2CO}-[Phe(3,4,5-F3)][NMeF][NMeNle][dP][Pro(4R-NH2)]V[NMeF]Y[dP]WYLCG-NH2; thioether N-13) | 0.385 to 6.74 nM |  | 0.158 to 4.71 nM
CCCC[C@H]1C(=O)N(C)[C@@H](CCCC)C(=O)N[C@@H](Cc2cccnc2)C(=O)N[C@H](C(=O)NCC(N)=O)CSCC(=O)N[C@@H](Cc2ccc(O)cc2)C(=O)N(C)[C@@H](C)C(=O)N[C@@H](CC(N)=O)C(=O)N2CCC[C@H]2C(=O)N[C@@H](Cc2cnc[nH]2)C(=O)N[C@@H](CC(C)C)C(=O)N2C[C@H](O)C[C@H]2C(=O)N[C@@H](Cc2c[nH]c3ccccc23)C(=O)N[C@@H](CO)C(=O)N[C@@H](Cc2c[nH]c3ccccc23)C(=O)N1C [Example 7033] | 0.385 to 6.74 nM | 0.158 to 4.71 nM | 
CCCC[C@@H]1C(=O)N(C)[C@H](CCCC)C(=O)N[C@@H](C)C(=O)N[C@@H](C(=O)NCC(N)=O)CSCC(=O)N[C@@H](Cc2ccc(O)cc2)C(=O)N2CCCC2C(=O)N[C@H](CC(=O)O)C(=O)N2CCC[C@H]2C(=O)N[C@H](CN)C(=O)N[C@@H](CCC(=O)O)C(=O)N2CCCC2C(=O)N[C@H](Cc2c[nH]c3ccccc23)C(=O)N[C@@H](CCN)C(=O)N[C@@H](Cc2c[nH]c3ccccc23)C(=O)N1C (stereo partly shown) [Example 1209] ({CH2CO}-Y[ξP][dD]P[dDap]E[ξP][dW][Dab]W[dNMeNle][dNMeNle]A[dC]G-NH2; thioether N-14) | 6.76 to 30.3 nM |  | 4.78 to 72.9 nM
